How the values were obtained:
CRBN/DDB1 = CRBN/DDB1 (Homo sapiens, UniProt Q96SW2); test: HTRF binding assay (displacement of Cy5-thalidomide probe from CRBN/DDB1); settings: CRBN/DDB1 2.5 nM, Cy5-Thalidomide 100 nM, 30 min; geometric mean; read-out: HTRF_Thali_Disp_DR_geo_IC50
How it was run: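 HTRF displacement of Cy5-thalidomide probe (100 nM) from His-tagged CRBN/DDB1 (2.5 nM) with anti-His terbium cryptate, in HEPES/NaCl/TCEP/EDTA/Tween20 buffer; 10-point 1:3 series, 30 min at ambient temperature. 665/620 nm ratio fitted 4-parameter logistic for IC50; Ki via Cheng-Prusoff.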

GP2D = test: Growth inhibition, CyQUANT Direct Cell Proliferation Assay, GP2D; format: cell-based; settings: GP2D cells, 120 to 168 hours
Method: (§1) SKCO1, LS180, and LS174T cell lines were purchased from ATCC. CW2 cell line was purchased from Riken. GP2D cell line was purchased from Sigma/ECACC. All cell lines were cultured in manufacturer's recommended media at 37° C., 5% CO2. Briefly, cells were suspended in 200 μL of media and seeded at 300 to 1,800 cells per well in tissue culture treated 96-well plates with black walls and clear bottom. Plates were incubated overnight and initial (TO) read was performed the following day using CyQUANT Direct Cell Proliferation Assay Kit (Thermo Fisher Scientific) according to manufacturer's protocol. All compounds were solubilized in DMSO and prepared at 3-fold serial dilution, using 9 points starting at 30 μM as highest concentration, administered to cells and incubated for 120 to 168 hours, at which point CyQUANT assay measurement was performed using Acumen Cellista instrument (Ex/Em 480/520 nm). Media-only wells were used as blank, and 0.3% DMSO was used as DMSO-treated cell control. Growth inhibition (percent response) was calculated using the following formula in Excel: “=if ([Compound treated Day N]>[Untreated Day 0, AVG], ([Compound treated Day N]− [Untreated Day 0, AVG])/([Untreated Day N]−[Untreated Day 0, AVG])*100, ([Compound Treated Day N]−[Untreated Day 0, AVG])/([Untreated Day 0, AVG])*100)”. GI50 is the response corresponding to the 50% of untreated control.
(§2) GI50 data are reported in Tables 4a, 4b, 4c, 4d, and 4e for compounds in Table 1. In Tables 4a, 4b, 4c, 4d, and 4e below, According to the code, A represents a GI50 value of ≤0.1 μM, B represents a GI50 value >0.1 μM and ≤1 μM, C represents an GI50 value >1 μM.

LS174T = test: Growth inhibition, CyQUANT Direct Cell Proliferation Assay, LS174T; format: cell-based; settings: Homo sapiens; LS174T cells, 120 to 168 hours
Method: as §1, §2

CRBN/DDB1, sequence (Q96SW2 whole entry): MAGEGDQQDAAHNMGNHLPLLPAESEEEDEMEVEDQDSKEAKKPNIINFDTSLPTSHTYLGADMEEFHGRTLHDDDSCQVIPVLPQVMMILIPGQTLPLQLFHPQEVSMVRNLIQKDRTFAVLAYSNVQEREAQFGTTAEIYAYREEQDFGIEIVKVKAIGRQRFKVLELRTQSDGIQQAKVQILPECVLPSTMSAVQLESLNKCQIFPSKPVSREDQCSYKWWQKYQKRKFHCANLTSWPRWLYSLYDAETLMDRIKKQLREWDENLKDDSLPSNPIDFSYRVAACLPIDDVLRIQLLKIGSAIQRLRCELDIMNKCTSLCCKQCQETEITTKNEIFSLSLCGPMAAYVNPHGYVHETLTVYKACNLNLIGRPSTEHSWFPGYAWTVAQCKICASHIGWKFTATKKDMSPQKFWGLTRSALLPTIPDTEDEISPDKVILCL
CRBN/DDB1, sequence (Q16531 whole entry partner): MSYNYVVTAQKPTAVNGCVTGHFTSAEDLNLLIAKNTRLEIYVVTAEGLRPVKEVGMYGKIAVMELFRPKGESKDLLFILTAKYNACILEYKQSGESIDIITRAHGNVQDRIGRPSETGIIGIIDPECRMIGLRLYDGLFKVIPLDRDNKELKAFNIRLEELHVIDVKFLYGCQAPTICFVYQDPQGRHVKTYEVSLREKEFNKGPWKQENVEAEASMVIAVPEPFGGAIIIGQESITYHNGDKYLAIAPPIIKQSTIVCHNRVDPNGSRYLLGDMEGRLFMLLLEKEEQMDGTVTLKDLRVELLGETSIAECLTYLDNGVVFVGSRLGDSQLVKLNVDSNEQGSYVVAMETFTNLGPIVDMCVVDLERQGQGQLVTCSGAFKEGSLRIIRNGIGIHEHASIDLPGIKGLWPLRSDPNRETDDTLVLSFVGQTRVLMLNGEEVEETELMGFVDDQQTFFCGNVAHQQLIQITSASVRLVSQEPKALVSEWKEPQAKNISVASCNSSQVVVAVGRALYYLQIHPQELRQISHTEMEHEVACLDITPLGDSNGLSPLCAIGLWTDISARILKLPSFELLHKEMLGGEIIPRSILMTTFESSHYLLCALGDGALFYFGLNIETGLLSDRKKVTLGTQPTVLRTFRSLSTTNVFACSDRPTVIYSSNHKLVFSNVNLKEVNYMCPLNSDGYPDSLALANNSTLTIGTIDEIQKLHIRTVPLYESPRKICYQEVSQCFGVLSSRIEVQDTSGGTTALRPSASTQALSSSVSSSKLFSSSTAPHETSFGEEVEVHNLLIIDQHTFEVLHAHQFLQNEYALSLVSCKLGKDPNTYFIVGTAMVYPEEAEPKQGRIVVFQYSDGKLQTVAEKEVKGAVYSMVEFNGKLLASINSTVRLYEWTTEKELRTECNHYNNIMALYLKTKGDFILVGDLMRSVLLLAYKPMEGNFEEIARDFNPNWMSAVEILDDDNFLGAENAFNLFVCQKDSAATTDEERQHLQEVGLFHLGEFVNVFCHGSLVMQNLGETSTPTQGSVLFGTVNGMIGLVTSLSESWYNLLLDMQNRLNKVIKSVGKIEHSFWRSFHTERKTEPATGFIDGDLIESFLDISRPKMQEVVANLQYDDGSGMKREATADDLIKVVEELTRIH

Structure (SMILES)	IC50 (CRBN/DDB1) [nM]	GI50 (GP2D) [nM]	GI50 (LS174T) [nM]
O=C1CCC(N2Cc3cc(N4CCN(c5ccccc5)C4=O)ccc3C2=O)C(=O)N1 (stereo not drawn) [Compound 101, 3-(1-oxo-5-(2-oxo-3-phenylimidazolidin-1-yl)isoindolin-2-yl)piperidine-2,6-dione]	100 to 1000	> 1000	> 1000
C[C@@H]1CN(c2ccc3c(c2)CN(C2CCC(=O)NC2=O)C3=O)C(=O)N1c1ccccc1 (stereo partly drawn) [Compound 107, 3-(5-((R)-4-methyl-2-oxo-3-phenylimidazolidin-1-yl)-1-oxoisoindolin-2-yl)piperidine-2,6-dione]	100 to 1000	100 to 1000	> 1000
C[C@@H]1CN(c2ccc3c(c2)CN(C2CCC(=O)NC2=O)C3=O)C(=O)N1c1ccc(C2CC2)cc1 (stereo partly drawn) [Compound 125, 3-(5-((R)-3-(4-cyclopropylphenyl)-4-methyl-2-oxoimidazolidin-1-yl)-1-oxoisoindolin-2-yl)piperidine-2,6-dione]	100 to 1000	100 to 1000	≤ 100
